From patent US8835476B2, “Synthesis of novel antimicrobials” (priority 2005, dated 2014)
Converted amounts (≈) assume the structure as drawn. Where two headings read alike, the source gives them in different places.

How the values were obtained:
Assay type in all cases: cell-based
[1] = test system: E. cloacae clinical isolates; test: Broth microdilution MIC, clinical isolate strains (NAUTICA); settings: unit assumed
Source text: (§1) All clinical isolates tested were from The North American Urinary Tract Infection Collaborative Alliance (NAUTICA) which is a UTI surveillance study involving 40 medical centres (30 from the US and 10 from Canada). Each centre submitted up to 50 consecutive outpatient midstream urine isolates. All isolates were deemed significant urinary tract pathogens by individual laboratory criteria and identified to the species level by each laboratory's existing protocol. Isolates were transported to the coordinating laboratory (Health Sciences Centre, Winnipeg, Canada) on charcoal swabs. Only one isolate per patient was accepted. Upon receipt, isolates were cultured by the coordinating laboratory, stocked in skim milk, and stored at −80° C. awaiting reference antibiotic susceptibility testing. Elementary demographic information was also compiled for each isolate. Isolates were selected randomly from the above pool to represent 18 different species of Enterobacteriaceae and non-Enterobacteriaceae. An average of 5 strains of each species were tested for a total of 93 organisms. In addition, 23 reference (ATCC) [both gram negative and gram positive] strains were tested.
(§2) Susceptibilities to the compounds were determined using the National Committee for Clinical Laboratory Standards (NCCLS) M7-A6 broth microdilution method. […] DMSO controls were incorporated into the panel to mimic the quantity of DMSO used in dissolving some of the compounds at the higher concentrations. Each final panel well volume was 100 μl with a bacterial inoculum of 5×10^5 colony forming units (CFU)/ml. Panels were read following 16 to 20 hours of incubation at 35° C. in ambient air. The minimum inhibitory concentration (MIC) was defined as the lowest concentration of antimicrobial inhibiting visible growth. Quality control (QC) was performed using four ATCC QC organisms that were run with every batch set up to insure reproducibility.

[2] = test system: P. vulgaris clinical isolates; test: as above; settings: unit assumed
Source text: as §1, §2

[3] = test system: B. cepacia clinical isolates; test: as above; settings: unit assumed
Source text: as §1, §2

[4] = test system: S. marcescens clinical isolates; test: as above; settings: unit assumed
Source text: as §1, §2

[5] = test system: M. morganii clinical isolates; test: as above; settings: unit assumed
Source text: as §1, §2

[6] = test system: S. maltophilia clinical isolates; test: as above; settings: unit assumed
Source text: as §1, §2

[7] = test system: P. retgerri clinical isolates; test: as above; settings: unit assumed
Source text: as §1, §2

[8] = test system: C. koseril clinical isolates; test: as above; settings: unit assumed
Source text: as §1, §2

[9] = test system: C. amalonaticus clinical isolates; test: as above; settings: unit assumed
Source text: as §1, §2

[10] = test system: S. liquifaciens clinical isolates; test: as above; settings: unit assumed
Source text: as §1, §2

[11] = test system: Ps. aeruginosa clinical isolates; test: as above; settings: Table 4B; each table row is one clinical isolate; unit assumed
Source text: as §1, §2

[12] = test system: K. pneumoniae clinical isolates; test: as above; settings: unit assumed
Source text: as §1, §2

[13] = test system: P. mirabilis clinical isolates; test: as above; settings: unit assumed
Source text: as §1, §2

[14] = test system: A. baumanii clinical isolates; test: as above; settings: unit assumed
Source text: as §1, §2

[15] = test system: E. coli clinical isolates; test: as above; settings: unit assumed
Source text: as §1, §2

[16] = test system: K. oxytoca clinical isolates; test: as above; settings: unit assumed
Source text: as §1, §2

[17] = test system: P. stuartii clinical isolates; test: as above; settings: unit assumed
Source text: as §1, §2

[18] = test system: C. freundii clinical isolates; test: as above; settings: in µg/mL (unit assumed)
Source text: as §1, §2

[19] = test system: E. aerogenes clinical isolates; test: as above; settings: unit assumed
Source text: as §1, §2

[20] = test system: S. liquefaciens ATCC 27592; test: Broth microdilution MIC, ATCC strains; settings: read-out: MIC (growth inhibition, microdilution method)
How it was run: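 Tested per NCCLS M7-A6 broth microdilution with an inoculum of 5×10^5 CFU/ml and DMSO controls matching solvent levels. Panels were incubated 16 to 20 hours at 35° C. in ambient air, and the MIC was taken as the lowest concentration inhibiting visible growth.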

[21] = test system: E. coli BL21 cells; test: Inhibition of E. coli growth in liquid culture (OD 600 nm); settings: only at the highest concentration tested (1 mM); FIG. 11
Description: Compounds to be tested were dissolved in ethanol or DMSO and subsequently diluted into of Luria broth. The final concentration of ethanol (2%, v/v) or DMSO (1%, v/v) had minimal effect on growth rate. Culture tubes were subsequently inoculated with E. coli BL21 or D22 cells to an optical density (at 600 nm) of 0.01 and incubated on a rotary shaker at 37° C. The optical density at 600 nm of 100 μl samples was measured at indicated time points.

[22] = Table 4B, each table row is one clinical isolate
[23] = clinical isolates, one table line per isolate

Row | Structure (SMILES) | MIC ([20]; S. liquefaciens ATCC 27592) [µg/mL] | MIC, E. CLOACAE [1, 23] [µg/mL] | MIC, P. VULGARIS [2, 23] [µg/mL] | MIC, B. CEPACIA [3, 23] [µg/mL] | MIC, S. MARCESCENS [4, 23] [µg/mL] | MIC, M. MORGANII [5, 23] [µg/mL] | MIC, S. MALTOPHILIA [6, 23] [µg/mL] | MIC, P. RETTGERI [7, 23] [µg/mL] | MIC, C. KOSERI [8, 23] [µg/mL] | MIC, C. AMALONATICUS [9, 23] [µg/mL] | MIC, S. LIQUEFACIENS [10, 23] [µg/mL] | MIC, K. PNEUMONIAE [12, 23] [µg/mL] | MIC, P. MIRABILIS [13, 23] [µg/mL] | MIC, A. BAUMANII [14, 23] [µg/mL] | MIC, E. COLI [15, 23] [µg/mL] | MIC, K. OXYTOCA [16, 23] [µg/mL] | MIC, P. STUARTII [17, 23] [µg/mL] | MIC, C. FREUNDII [18, 23] | MIC, E. AEROGENES [19, 23] [µg/mL] | growth inhibitory activity, E. coli liquid culture [21] | other results
1 | Cn1nnnc1-c1cc(-c2ccc(F)cc2)sc1C(=O)O [DNM-143, 5-(4-Fluoro-phenyl)-3-(1-methyl-1H-tetrazol-5-yl)-thiophene-2-carboxylic acid] | > 8 |  |  |  |  |  |  |  |  |  |  |  |  |  |  |  |  |  |  |  | MIC, E. CLOACAE [1, 22]: > 8 µg/mL; MIC, P. VULGARIS [2, 22]: > 8 µg/mL; MIC, B. CEPACIA [3, 22]: > 8 µg/mL; MIC, S. MARCESCENS [4, 22]: > 8 µg/mL; MIC, M. MORGANII [5, 22]: > 8 µg/mL; MIC, S. MALTOPHILIA [6, 22]: > 8 µg/mL; MIC, P. RETTGERI [7, 22]: > 8 µg/mL; MIC, C. KOSERI [8, 22]: > 8 µg/mL; MIC, C. AMALONATICUS [9, 22]: > 8 µg/mL; MIC, S. LIQUEFACIENS [10, 22]: > 8 µg/mL; MIC, PS. AER [11]: > 8 µg/mL; MIC, K. PNEUMONIAE [12, 22]: > 8 µg/mL; MIC, P. MIRABILIS [13, 22]: > 8 µg/mL; MIC, A. BAUMANII [14, 22]: > 8 µg/mL; MIC, E. COLI [15, 22]: > 8 µg/mL; MIC, K. OXYTOCA [16, 22]: > 8 µg/mL; MIC, P. STUARTII [17, 22]: > 8 µg/mL; MIC, C. FREUNDII [18, 22]: >8; MIC, E. AEROGENES [19, 22]: > 8 µg/mL
2 | Cn1nnc(-c2cc(C(=O)O)sc2C(=O)O)n1 [DNM-112, 3-(2-Methyl-2H-tetrazol-5-yl)-thiophene-2,5-dicarboxylic acid] |  | > 256 | > 256 | > 256 | > 256 | > 256 | > 256 | > 256 | > 256 | > 256 | > 256 | > 256 | > 256 | > 256 | > 256 | > 256 | > 256 | >256 | > 256 |  | MIC [20]: > 256 µg/mL
3 | Cn1nnc(-c2cc(C(=O)O)sc2-c2ccc(F)cc2)n1 [DNM-123, 5-(4-fluorophenyl)-4-(2-methyl-2H-tetrazol-5-yl)thiophene-2-carboxylic acid] | 8 (≈ 26.3 µM) |  |  |  |  |  |  |  |  |  |  |  |  |  |  |  |  | 8 |  | Substantial growth inhibitory activity | 
4 | CCOC(=O)c1cc(-c2nnn[nH]2)c(-c2ccc(F)cc2)s1 [DNM-124, 5-(4-Fluoro-phenyl)-4-(1H-tetrazol-5-yl)-thiophene-2-carboxylic acid ethyl ester] | > 64 | > 64 | > 64 |  | > 64 | > 64 | > 64 | > 64 | > 64 | > 64 | > 64 | > 64 | > 64 |  | > 64 | > 64 |  | >64 | > 64 | Substantial growth inhibitory activity | 
5 | O=C(O)c1cc(-c2nnn[nH]2)c(-c2ccc(F)cc2)s1 [DNM-121, 5-(4-Fluoro-phenyl)-4-(1H-tetrazol-5-yl)-thiophene-2-carboxylic acid] | 64 (≈ 220 µM) | 64 (≈ 220 µM) | 64 (≈ 220 µM) | 64 (≈ 220 µM) | 64 (≈ 220 µM) | 64 (≈ 220 µM) | 64 (≈ 220 µM) | 64 (≈ 220 µM) | 64 (≈ 220 µM) | 64 (≈ 220 µM) | 64 (≈ 220 µM) | 64 (≈ 220 µM) | 64 (≈ 220 µM) | 64 (≈ 220 µM) | 64 (≈ 220 µM) | 64 (≈ 220 µM) | 64 (≈ 220 µM) | 64 | 64 (≈ 220 µM) |  | 
